Assay type in all cases: cell-based
Assay [1] has as its system HepG2 (liver cancer). The assay is described as follows: Antiproliferative activity (CCK-8 cell viability), HepG2. The conditions noted are these: Homo sapiens, 72 h; for inhibition at 3.3 µM: Compound concentration: 3.3 μM; for inhibition at 3.3 µM / inhibition at 10 µM: read-out: Antiproliferative activity in cancerous cells, HepG2 (inhibition of cell growth); for inhibition at 10 µM: Compound concentration: 10 μM; for inhibition at 30 µM: Compound concentration: 30 μM, read-out: Antiproliferative activity in cancerous cells, HepG2. The method, boiled down:
(§1)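 Growth inhibition graded in bands from percent viability against DMSO vehicle, read as CCK-8 absorbance at 450 nm. Compound tested at 3.3, 10 or 30 μM for 72 h, 37 °C; media contained 10% FBS: DMEM for HepG2/SW480, MEM for HeLa, F-12K for A549.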

Assay [2] has as its system A549 (lung adenocarcinoma). The assay is described as follows: Antiproliferative activity (CCK-8 cell viability), A549. The conditions noted are these: Homo sapiens, 72 h; for inhibition at 3.3 µM: Compound concentration: 3.3 μM; for inhibition at 3.3 µM / inhibition at 10 µM: read-out: Antiproliferative activity in cancerous cells, A549 (inhibition of cell growth); for inhibition at 10 µM: Compound concentration: 10 μM; for inhibition at 30 µM: Compound concentration: 30 μM, read-out: Antiproliferative activity in cancerous cells, A549. The essentials: as §1

The subject of assay [3] is A431 (epidermoid carcinoma). The assay is described as follows: Antiproliferative activity (CCK-8 cell viability), A431. The conditions noted are these: Homo sapiens, 72 h; for inhibition at 3.3 µM: A-431, Compound concentration: 3.3 μM; for inhibition at 3.3 µM / inhibition at 10 µM: read-out: Antiproliferative activity in cancerous cells, A431 (inhibition of cell growth); for inhibition at 10 µM: A-431, Compound concentration: 10 μM; for inhibition at 30 µM: A-431, Compound concentration: 30 μM, read-out: Antiproliferative activity in cancerous cells, A431. The method, boiled down: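 This growth inhibition assay used A431 cells maintained in Dulbecco's modified Eagle's medium plus 10% fetal bovine serum. Cells were seeded in 96-well plates, treated with compound for 72 h at 37° C., and then given 10 μL CCK-8 solution. After a further 4 h, absorbance was read at 450 nm.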

Assay [4] relates to B16F10 (malignant melanoma). The assay is described as follows: Antiproliferative activity (CCK-8 cell viability), B16F10. As to conditions: Mus musculus, 72 h; for inhibition at 3.3 µM: B16-F10, Compound concentration: 3.3 μM; for inhibition at 3.3 µM / inhibition at 10 µM: read-out: Antiproliferative activity in cancerous cells, B16F10 (inhibition of cell growth); for inhibition at 10 µM: B16-F10, Compound concentration: 10 μM; for inhibition at 30 µM: B16-F10, Compound concentration: 30 μM, read-out: Antiproliferative activity in cancerous cells, B16F10. The essentials:
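Cell growth inhibition was measured in B16F10 malignant melanoma cells with a Cell Counting Kit-8 viability assay. Cells were maintained in DMEM plus 10% fetal bovine serum, seeded at 2,000-5,000 cells/well in 96-well plates, and treated for 72 h at 37° C. Viability was expressed relative to DMSO-treated vehicle control wells.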

Assay [5] has as its system SW480 (colon cancer). The assay is described as follows: Antiproliferative activity (CCK-8 cell viability), SW480. As to conditions: Homo sapiens, 72 h; for inhibition at 3.3 µM: Compound concentration: 3.3 μM; for inhibition at 3.3 µM / inhibition at 10 µM: read-out: Antiproliferative activity in cancerous cells, SW480 (inhibition of cell growth); for inhibition at 10 µM: Compound concentration: 10 μM; for inhibition at 30 µM: Compound concentration: 30 μM, read-out: Antiproliferative activity in cancerous cells, SW480. The essentials:
as §1

Assay [6] concerns MDA-MB-231 (breast cancer). The assay is described as follows: Antiproliferative activity (CCK-8 cell viability), MDA-MB-231. The conditions noted are these: Homo sapiens, 72 h; for inhibition at 3.3 µM: Compound concentration: 3.3 μM; for inhibition at 3.3 µM / inhibition at 10 µM: read-out: Antiproliferative activity in cancerous cells, MDA-MB-231 (inhibition of cell growth); for inhibition at 10 µM: Compound concentration: 10 μM. The essentials:
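Growth inhibition of human MDA-MB-231 breast cancer cells was assessed with a Cell Counting Kit-8. Cells cultured in DMEM plus 10% FBS were seeded at 2,000-5,000 cells/well, treated after attachment, and kept 72 h at 37° C. CCK-8 solution (10 μL) was added for 4 h, and absorbance at 450 nm was compared with DMSO-treated controls.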

Assay [7] has as its system alpha-smooth muscle actin (α-SMA). The assay is described as follows: Inhibition of TGF-β induced expression of alpha-smooth muscle actin (α-SMA) in CFSC cells (western blot). As to conditions: compound at 10 μM, TGF-β (10 ng/mL), 24 hours, band intensity vs TGF-β only. The essentials:
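Values are percent reduction of α-SMA band intensity relative to cells given TGF-β alone, quantified by Western blot densitometry with β-actin probed. Compound was applied at 10 μM alongside 10 ng/mL TGF-β to serum-free CFSC cultures for 24 h at 37 °C.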
In general terms: A western blot detects proteins with antibodies after separation by electrophoresis.

In assay [8] the test system is HeLa (cervical cancer). The assay is described as follows: Antiproliferative activity (CCK-8 cell viability), HeLa. The conditions noted are these: Homo sapiens, 72 h; for inhibition at 3.3 µM: Compound concentration: 3.3 μM; for inhibition at 3.3 µM / inhibition at 10 µM: read-out: Antiproliferative activity in cancerous cells, HELA (inhibition of cell growth); for inhibition at 10 µM: Compound concentration: 10 μM; for inhibition at 30 µM: Compound concentration: 30 μM, read-out: Antiproliferative activity in cancerous cells, HELA. The essentials: as §1

The results in this text go back to US20260184663A1, “INDENE COMPOUNDS, PHARMACEUTICAL COMPOSITIONS THEREOF, AND THEIR THERAPEUTIC APPLICATIONS” (NucMito Pharmaceuticals co. Ltd., priority 2022, published 2026).

With `O=C(O)CC1=C/C(=C/c2cccc(Oc3ccccc3)c2)c2cc(OCC(F)(F)F)ccc21` [C15, (Z)-2-(1-(3-Phenoxybenzylidene)-6-(2,2,2-trifluoroethoxy)-1H-inden-3-yl)acetic acid], the inhibition at 3.3 µM in assay [1] is less than 30%; in assay [2], less than 30%; in assay [3], less than 30%; in assay [4], less than 30%; in assay [5] it was less than 30%; in assay [6], 30 to 50%. Also, the inhibition at 3.3 µM in assay [8] was less than 30%. Besides, the inhibition at 10 µM in assay [1] was less than 30%; in assay [2], less than 30%; in assay [3], less than 30%; in assay [4], less than 30%; in assay [5], less than 30%; in assay [6], not below 50%. Further, the inhibition at 10 µM in assay [7] is less than 30%; in assay [8], 30 to 50%. Besides, the inhibition at 30 µM in assay [1] is 30 to 50%; in assay [2], less than 30%; in assay [3], less than 30%; in assay [4], 30 to 50%; in assay [5] it was less than 30%.

Regarding `CC1=C(CC(=O)O)c2c(F)cccc2/C1=C\c1cccc(Oc2ccccc2)c1` [C21, (Z)-2-(4-Fluoro-2-methyl-1-(3-phenoxybenzylidene)-1H-inden-3-yl)acetic acid], the inhibition at 3.3 µM in assay [1] was less than 30%; in assay [2], 30 to 50%; in assay [3], less than 30%; in assay [4], less than 30%; in assay [5], less than 30%; in assay [6] it was not below 50%. For the same molecule, the inhibition at 3.3 µM in assay [8] lay within 30 to 50%. For the same molecule, the inhibition at 10 µM in assay [1] was 30 to 50%; in assay [2], 30 to 50%; in assay [3], not below 50%; in assay [4], less than 30%; in assay [5] it was less than 30%; in assay [6], not below 50%. Besides, the inhibition at 10 µM in assay [7] is less than 30%; in assay [8], not below 50%.

Consider `CCc1ccc2c(c1)C(CC(=O)O)=C(C)/C2=C/c1cccc(Oc2ccccc2)c1` [C18, (Z)-2-(5-Ethyl-2-methyl-1-(3-phenoxybenzylidene)-1H-inden-3-yl)acetic acid], for which the inhibition at 3.3 µM in assay [1] is 30 to 50%; in assay [2] it was 30 to 50%; in assay [3], not below 50%; in assay [4] it was not below 50%; in assay [5] it was not below 50%; in assay [6], 30 to 50%. Besides, in assay [8], the inhibition at 3.3 µM was less than 30%. The inhibition at 10 µM in assay [1], in assay [2], in assay [3], in assay [4], in assay [5] and in assay [6] was not below 50% in each case. Besides, the inhibition at 10 µM in assay [7] was less than 30%; in assay [8], 30 to 50%.

In the case of `COc1ccc(Oc2ccc(/C=C3/C(C)=C(CC(=O)O)c4cc(F)ccc43)cn2)cc1` [C35, (Z)-2-(5-Fluoro-1-((6-(4-methoxyphenoxy)pyridin-3-yl)methylene)-2-methyl-1H-inden-3-yl)acetic acid], the inhibition at 3.3 µM in assay [1] is less than 30%; in assay [2] it was not below 50%; in assay [3], less than 30%; in assay [4] it was less than 30%; in assay [5] it was less than 30%; in assay [6], less than 30%. In addition, the inhibition at 3.3 µM in assay [8] is less than 30%. The inhibition at 10 µM is less than 30% in assay [1]; not below 50% in assay [2]; less than 30% in assay [3]; less than 30% in assay [4]; 30 to 50% in assay [5]; less than 30% in assay [6]. The inhibition at 10 µM in assay [7] and in assay [8] was less than 30% each time. Also, the inhibition at 30 µM in assay [1] is less than 30%; in assay [2] it was 30 to 50%; in assay [3], less than 30%; in assay [4], less than 30%; in assay [5], less than 30%; in assay [6] (Compound concentration: 30 μM, read-out: Antiproliferative activity in cancerous cells, MDA-MB-231), 30 to 50%. For the same molecule, the inhibition at 30 µM in assay [8] is less than 30%.

With `CC1=C(CC(=O)O)c2ccc(F)cc2/C1=C\c1ccc(Oc2ccc(F)cc2)cc1` [C3, (Z)-2-(6-Fluoro-1-(4-(4-fluorophenoxy)benzylidene)-2-methyl-1H-inden-3-yl)-acetic acid], the inhibition at 3.3 µM was not below 50% in assay [1]; 30 to 50% in assay [2]; not below 50% in assay [3]; less than 30% in assay [4]; less than 30% in assay [5]; less than 30% in assay [6]. Moreover, the inhibition at 3.3 µM in assay [8] is less than 30%. Further, the inhibition at 10 µM in assay [1] is not below 50%; in assay [2], 30 to 50%; in assay [3] it was not below 50%; in assay [4], 30 to 50%; in assay [5], less than 30%; in assay [6], 30 to 50%. Also, the inhibition at 10 µM in assay [7] and in assay [8] was less than 30% each time. Further, the inhibition at 30 µM in assay [5] and in assay [8] was less than 30% in each case.

Consider `COc1ccc2c(c1)C(CC(=O)O)=C(C)/C2=C/c1cccc(COc2ccc(F)cc2)c1` [B24, (Z)-2-(1-(3-((4-Fluorophenoxy)methyl)benzylidene)-5-methoxy-2-methyl-1H-inden-3-yl)acetic acid], for which the inhibition at 3.3 µM was less than 30% in assay [1]; 30 to 50% in assay [2]; less than 30% in assay [3]; less than 30% in assay [4]; less than 30% in assay [5]; 30 to 50% in assay [6]. The inhibition at 3.3 µM in assay [8] is less than 30%. For the same molecule, the inhibition at 10 µM was less than 30% in assay [1]; not below 50% in assay [2]; less than 30% in assay [3]; not below 50% in assay [4]; less than 30% in assay [5]; not below 50% in assay [6]. The figures for the inhibition at 10 µM in assay [7] and in assay [8] were more than 80% and less than 30%, respectively. The inhibition at 30 µM in assay [1] was 30 to 50%.
